Reference: patent US20230263825A1, “ANTI-CANCER ACTIVITY OF PERBORATE SALTS” (priority 2020, published 2023)
“Also recorded” adds a separate entry of the source.

Tests used:
Assay type in all cases: cell-based
[1] = test system: DMS114 cells (small cell lung cancer cells); assay: Flow cytometry (Annexin V / PI) cell death pathways; details: 15 μg/mL, 3 days
Method: (§1) Cell death pathways were analysed using the Annexin V method, performed by flow cytometry. In this method, Annexin V dye is used to detect cells entering the apoptosis death pathway (Sigma-Aldrich Cat No: 11858777001), while PI (Propidium Iodide) dye is used to detect cells entering the necrosis death pathway (Sigma-Aldrich Cat No: 11858777001).
(§2) Cells were grown in complete RPMI media (completed with 10% Fetal Bovine Serum and 1% penicillin streptomycin amphotericin) in a humidified CO2 incubator (80% humidity, 5% CO2 and 37° C.). At 70-80% confluency, cells were harvested using Trypsin/EDTA solution. After 3 days of sodium perborate tetrahydrate treatment (15 μg/mL), the cells were harvested and divided into 4 equal tubes. […] Only PI dye was placed in the second tube and necrotic cells were detected. Annexin V dye was placed in the third tube and apoptotic cells were detected. In the fourth tube, two dyes were put together. […] On the other hand, over 90% of MRC5 cells were alive in the control as well as following treatment with sodium perborate tetrahydrate, with only a small percentage (<5%) of treated cells in necrosis.

[2] = test system: MRC5 cells (healthy lung cells); assay: as above; details: 15 μg/mL, 3 days
Method: as §1, §2

[3] = test system: PSN-1 (a pancreatic adenocarcinoma cell line); assay: MTS cytotoxicity assay, single agents and combinations; details: PSN-1, alone
Method: (§3) An MTS reduction (MTS (3-(4,5-dimethylthiazol-2-yl)-5-(3-carboxymethoxyphenyl)-2-(4-sulfophenyl)-2H-tetrazolium) assay) was conducted to analyze the cytotoxic effect of sodium perborate tetrahydrate on lung, chordoma and pancreatic cells and normal cells. In this method, cell viability is determined via the activity of mitochondrial dehydrogenase enzyme, which reduces the tetrazolium dye MTS to its […] formazan (absorbance maximum of 490 nm in PBS).
(§4) Cells were counted and seeded in 96-well culture dishes. […] The positive control comprised 20% Dimethyl Sulfoxide and the negative control comprised complete growth media. Seeding densities were as follows: DMS114: 20.000 cells/well; MRC5: 5.000 cells/well; CH22: 2.000 cells/well; JHC7, UM-Chor1, MUG-Chor1, UCH1 and NPH: 5.000 cells/well; PSN1: 10.000 cells/well; BxPC3 and ASPC: 7.500 cells/well. The effect of sodium perborate tetrahydrate on cell viability was measured as follows. The cell culture medium was discarded and 100 μl of MTS solution (10% glucose solution and 1% MTS-PMS solution in PBS) was added into each well. After 1 hour incubation in a humidified incubator, an absorbance reading was taken to determine mitochondrial dehydrogenase activity and cell survival was calculated relative to the negative control.

MRC5 cells = assay: Video analysis of cell movement and division
Method: (§5) The DMS114 and MRC5 cells from Example 2 were analyzed during the 3 day treatment period with sodium perborate tetrahydrate. Roughly 20 photos/hour were taken of the cells over the 72 hour (3 day) period. The resulting 1500 were merged to create a video which was used to observe the effect of sodium perborate on movement and division of DMS114 and MRC5 cells. […] FIGS. 21A and 21B show DMS114 cells at the start and end of the 72 hour treatment period. FIGS. 22A and 22B show MRC5 cells at the start and end of the 72 hour treatment period.

DMS114 cells = assay: Video analysis of cell movement and division; details: 72 hour treatment
Method: as §5

[4] = test system: chordoma (CH22, JHC7, UM-Chor1, MUG-Chor1, U-CH1) cells; assay: MTS cytotoxicity assay
Method: as §3, §4

[5] = test system: pancreatic cancer (PSN1, BxPC3 and ASPC) cells; assay: MTS cytotoxicity assay
Method: as §3, §4

normal cells (MRC5, NPH) = assay: MTS cytotoxicity assay
Method: as §3, §4

[6] = test system: DMS114 cells (small cell lung cancer cells); assay: MTS cytotoxicity assay
Method: as §3, §4

## O.O.O.O.[Na+].[O-]B1OO1 [sodium perborate tetrahydrate]
[1]
  cells alive: less than 5%
  cells in early apoptosis: ~80%
  cells in late apoptosis: ~10%
[2]
  damage to healthy cells (MRC5) relative to cancer cells (DMS114), times less: approximately 5 times
[2]; MRC5
  cells alive: over 90%
  treated cells in necrosis: less than 5%
[3]
  EC50 concentration: 7.5 µg/mL
MRC5 cells
  division and movement of healthy cells: slowing cell division and movement of healthy cells to some extent; also recorded: only slowed the division and movement
DMS114 cells
  DMS114 cells whose movement was stopped: ~100%
[4]
  cell survival of chordoma cell lines: effective in decreasing cell survival
[5]
  cell survival of pancreatic cell lines: effective in decreasing cell survival
Normal cells (MRC5, NPH)
  cell survival of normal cell lines: minimal impact on the cell survival
[6]
  cell survival of lung cancer cell lines: effective in decreasing cell survival
[6]; DMS114
  EC50 (dose that kills 50% of cells): 15 µg/mL
[6]; FIG. 3A
  time to maximum effect on DMS114 cells: ≤ 1 days
[6]; FIGS. 23A-C, same biological model
  toxicity compared with other boron derivatives: significantly less toxic than boric acid and sodium pentaborate pentahydrate
